Measured values reported in patent publication US11413278B2, “Compounds and methods for promoting stress resistance” (priority 2015, dated 2022).
Read-outs that look alike come from different tables or passages of the source.

Columns and labels:
C. elegans = C. elegans lifespan assays (liquid and plate); type: in vivo, Caenorhabditis elegans; conditions: for Lifespan assay in liquid / Lifespan assay on plates: at 66 uM; for Lifespan assay on plates: CF512 worms, no FuDR
human PARP1 = target: T1, human PARP1 (Homo sapiens, UniProt P09874); test: PARP inhibitor assay (HT Fluorescent Homogeneous PARP Inhibition Assay Kit); type: biochemical; conditions: score
T1 construct: purchased Trevigen
Method in brief: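 Human PARP1 with NAD and activated DNA, compounds at 10 μM final, 30 min at room temperature in dark. Resazurin/diaphorase cycling mix then added for 1 hr in dark before stop buffer; fluorescent homogeneous kit read-out.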

WI-38 cells [1] = system: WI-38 cells
[2] = system: PC12 cells expressing poly(Q)103-Htt-EGFP; test: Poly(Q) toxicity & viability analysis (cellular model of Huntington's disease); type: cell-based, rat
Method in brief: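 PC12 cells stably carrying inducible poly(Q)103-Htt-EGFP, whose induced expression causes aggregation and toxicity. Viability read 48 hrs later as ATP content by CellTiter-Glo.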

WI-38 cells [3] = test: MMS resistance assay; type: cell-based, human
Method in brief: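 WI-38 cells were given compounds at five final concentrations (0.25–20 μM) in triplicate, followed by cadmium or MMS for 12 h. For MMS, medium was switched from OptiMEM+10% FBS to serum-free DMEM+2% BSA when compounds were added, 24 h before stressor. Two independent assays were run, analysed by global variance t-test.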

[4] = system: phosphorylated γH2A.X and TP53BP1; test: DNA damage marker analysis (immuno-staining)
Method in brief: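 WI-38 cells were cultured 24 h, then treated with compounds for 24 h; H2O2 (700 μM, 3 h) and doxorubicin (300 nM, 24 h) served as DNA-damage controls. After fixation, cells were immunostained for phospho-γH2A.X (Ser-139) and phospho-TP53BP1 (Ser-1778), counterstained with DAPI, and imaged by automated high-content microscopy.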

[5] = Experiment 2, WI-38 cells, 10 μM, 24 hrs, no H2O2, normalized marker-positive fraction, n = 3
[6] = Experiment 2, WI-38 cells, 10 μM, 24 hrs, under H2O2 stress, normalized marker-positive fraction, n = 3

T1 sequence (P09874 whole entry): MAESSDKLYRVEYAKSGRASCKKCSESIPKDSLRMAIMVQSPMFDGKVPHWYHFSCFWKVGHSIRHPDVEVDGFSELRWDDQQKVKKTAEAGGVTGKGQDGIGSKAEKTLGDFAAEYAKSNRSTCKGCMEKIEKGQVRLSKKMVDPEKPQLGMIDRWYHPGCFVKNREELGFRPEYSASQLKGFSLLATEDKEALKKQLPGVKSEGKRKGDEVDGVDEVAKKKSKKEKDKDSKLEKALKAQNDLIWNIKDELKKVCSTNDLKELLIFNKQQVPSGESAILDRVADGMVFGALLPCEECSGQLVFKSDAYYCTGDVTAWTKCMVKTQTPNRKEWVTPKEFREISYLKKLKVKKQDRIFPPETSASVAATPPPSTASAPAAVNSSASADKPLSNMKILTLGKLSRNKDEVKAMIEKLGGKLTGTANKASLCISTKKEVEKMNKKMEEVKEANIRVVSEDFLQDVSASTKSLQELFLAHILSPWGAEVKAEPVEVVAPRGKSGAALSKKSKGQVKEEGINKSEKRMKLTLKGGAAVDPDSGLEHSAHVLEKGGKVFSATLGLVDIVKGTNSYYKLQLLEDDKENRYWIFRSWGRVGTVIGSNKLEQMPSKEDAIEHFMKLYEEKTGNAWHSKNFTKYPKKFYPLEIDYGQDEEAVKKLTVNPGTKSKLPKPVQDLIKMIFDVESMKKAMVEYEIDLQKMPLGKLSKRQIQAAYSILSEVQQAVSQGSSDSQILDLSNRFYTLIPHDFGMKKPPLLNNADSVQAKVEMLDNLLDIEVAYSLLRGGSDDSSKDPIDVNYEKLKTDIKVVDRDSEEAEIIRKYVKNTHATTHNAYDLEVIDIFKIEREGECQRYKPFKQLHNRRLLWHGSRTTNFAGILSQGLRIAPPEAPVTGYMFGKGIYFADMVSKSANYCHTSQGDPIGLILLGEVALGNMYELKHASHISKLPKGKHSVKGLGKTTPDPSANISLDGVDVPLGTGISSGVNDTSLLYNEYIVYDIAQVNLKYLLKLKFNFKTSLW

Question: Which results are given for COc1cc2c(no[n+]2[O-])n2nnnc12 [O11]?
Answer: relative change of mean lifespan vs control, Trial 1 (C. elegans; 60 μM, in liquid, wild type, with FuDR, 1.0 × 10^9 bacteria/ml): +14.9%; relative change of mean lifespan vs control, Trial 2 (C. elegans; 60 μM, in liquid, wild type, with FuDR, 2.5 × 10^9 bacteria/ml): +6.0%; relative change of mean lifespan vs control, Trial 4 (C. elegans; 60 μM, on plate, CF512 temperature-sensitive sterile animals, without FuDR, 1.0 × 10^11 bacteria/ml): +9.0%; relative change of mean lifespan vs control, Trial 3 (C. elegans; 60 μM, on plate, CF512 temperature-sensitive sterile animals, without FuDR, 2.0 × 10^10 bacteria/ml): +21.0%; Lifespan assay in liquid (C. elegans; Assay 2(z), 1.0 × 10^9 bacteria/ml, wild type + FuDR (2012 July)): +14.9%; Lifespan assay in liquid (C. elegans; Assay 3(aa), 2.5 × 10^9 bacteria/ml, wild type + FuDR): +6.0%; Lifespan assay on plates (C. elegans; Assay 4(ab), 2.0 × 10^10 bacteria/ml): +21.0%; Lifespan assay on plates (C. elegans; Assay 5(ac), 1.0 × 10^11 bacteria/ml): +9.0%; O = Life span- extending scores in worms (C. elegans; score scale 0 to 2, 4 to 6 independent trials): 1 (1 for lifespan extension observed in 2 trials); M = Lifespan-extending scores in worms (C. elegans; summary score): 1 (1 for lifespan extension observed in 2 trials); L = PARP inhibition (human PARP1): 0; Screen 1: Screening, at 10 uM (viability assay by ATP measurement, normalized fold-change shown, >=2.5) (WI-38 cells [1]; 10 uM, 24 h, then 700 μM H2O2 3 h, normalized to DMSO): 3.42 fold-change; Screen 2: Dose response, at 10 uM (viability assay by ATP measurement, normalized fold-change shown, >=1.5) (WI-38 cells [1]; 10 uM, H2O2 stress): 6.71 fold-change; Screen 3: Dose response, at 20 uM (viability assay by ATP measurement, normalized fold-change shown) (WI-38 cells [1]; 20 uM, H2O2 stress): 3.00 fold-change; Exp. 1, under H2O2 stress treatment, at 10 uM (fold change) (WI-38 cells [1]; Exp. 1, WI-38 cells, 10 uM, normalized ATP measurement (Table 12)): 3.53 fold change; Exp. 2, under H2O2 stress treatment, at 10 uM (fold change) (WI-38 cells [1]; Exp. 2, WI-38 cells, 10 uM, normalized ATP measurement (Table 12)): 2.10 fold change; Experiment 1, WI-38 cells (under H2O2 stress treatment), at 10 uM (fold change) (WI-38 cells [1]; Experiment 1, WI-38 cells, 10 uM (run along with HDF cells)): 2.52 fold change; Experiment 2, WI-38 cells (under H2O2 stress treatment), at 10 uM (fold change) (WI-38 cells [1]; Experiment 2, WI-38 cells, 10 uM (run along with HDF cells)): 28.12 fold change; Dose response retest, at 10 uM (fold change) (WI-38 cells [1]; H2O2-resistance of WI-38 cells, cherry-picked retest, 10 uM): 6.71 fold change; Dose response retest, at 20 uM (fold change) (WI-38 cells [1]; H2O2-resistance of WI-38 cells, cherry-picked retest, 20 uM): 3.00 fold change; Library Screening, at 10 uM (fold change) (WI-38 cells [1]; H2O2-resistance of WI-38 cells, library screening, 10 uM): 3.42 fold change; H2O2-resistant (WI-38 cells [1]; WI-38 cells, 10 μM, (*) = compromised ability to protect cells from H2O2, could be due to stability issue): YES; H2O2 stress treatment (3 hrs), at 10 uM (fold change) (WI-38 cells [1]; WI-38 cells, H2O2 3 hrs, 10 uM, normalized ATP measurement): 7.18 fold change; No H2O2 stress treatment, at 10 uM (fold change) (WI-38 cells [1]; WI-38 cells, no H2O2 stress, 10 uM, normalized ATP measurement): 0.75 fold change; Assay 1: H2O2-resistant (WI-38 cells [1]; YES/NO, if NO, possibly due to repeated freezing/thawing of stocks): YES; H2O2-resistant (WI-38 cells [1]; asterisks indicate the loss of the ability to protect cells from H2O2 over time): YES; EC50 (WI-38 cells [1]; derived from dose response curves, 0.6-20 uM, H2O2-resistance of WI-38 cells): 4.4 µM; EC50 (WI-38 cells [1]; read-out: Est. ED50, dose response 0.6-20 μM, H2O2-resistance): 4.4 µM; M = Huntington's poly-Q toxicity attenuation ([2]; score): 0; K = Huntington's poly-Q toxicity attenuation ([2]; summary score): 0; Exp. 1, under MMS stress treatment, at 10 uM (fold change) (WI-38 cells [3]; Exp. 1, WI-38 cells, 10 uM, normalized ATP measurement): 0.97 fold change; Exp. 2, under MMS stress treatment, at 10 uM (fold change) (WI-38 cells [3]; Exp. 2, WI-38 cells, 10 uM, normalized ATP measurement): 4.20 fold change; B = MMS resistant (WI-38 cells [3]; score in summary of 38 core set hits): 0; B = MMS resistant (WI-38 cells [3]; summary score): 0; D = Triple resistant (WI-38 cells [3]; summary score): 0; Percentage of both γH2A.X- and TP53BP1-positive cells (DNA damage markers) ([4]; 10 μM, 24 hrs, absence of H2O2): did not appear to increase both; Experiment 1, H2A.X-P DNA damage foci staining (no H2O2 stress treatment), at 10 uM ([4]; Experiment 1, WI-38 cells, 10 μM, 24 hrs, no H2O2, normalized marker-positive fraction, n = 3): 83.1%,; Experiment 2, H2A.X-P DNA damage foci staining (no H2O2 stress treatment), at 10 uM [4, 5]: 91.2%,; Experiment 2, TP53BP1-P DNA damage foci staining (no H2O2 stress treatment), at 10 uM [4, 5]: 154.0%,; Experiment 2, H2A.X-P DNA damage foci staining (under H2O2 stress treatment), at 10 uM [4, 6]: 151.7%,; Experiment 2, TP53BP1-P DNA damage foci staining (under H2O2 stress treatment), at 10 uM [4, 6]: 560.5%,; R = Potential DNA damaging ([4]; negative point, cultured human cells): 0; P = Potential DNA-damaging ([4]; summary score): 0
